Measurements published in patent US6329339A, “Pharmaceutical antiviral composition comprising glycyrrhizic acid and at least one protein endowed with antiviral activity” (priority 1997, dated 2001).

Assays:
[1] = test system: human immunodeficiency virus; conditions: in vitro; cited from earlier work
human cytomegalovirus = conditions: in vitro; cited from earlier work
HSV1 [2] = conditions: Arch. Virol. 1995; cited from earlier work
[3] = test system: Herpes Simplex Virus type 1; conditions: cited from earlier work
[4] = in vivo, cited from earlier work
[5] = test system: infected cells, synthesis of glyco-proteins; conditions: cited from earlier work
[6] = test system: normal cells, synthesis of glyco-proteins; conditions: cited from earlier work
[7] = test system: normal cells, synthesis of proteins; conditions: even at doses of 4 mM; cited from earlier work
HSV1 [8] = experiment: Inhibition of HSV1 viral plaques on VERO cells; format: cell-based, Herpes Simplex Virus type 1; conditions: for Inhibition (%) of viral plaques with various lysozymes: percentage of the control ± standard deviation
[9] = test system: infected cells, synthesis of proteins; conditions: even at doses of 4 mM; cited from earlier work
HSV1 [10] = conditions: 8 mM, cited from earlier work
[11] = test system: virus (viral replication); conditions: cited from earlier work
[12] = Human alphaherpesvirus 1, Vero, read-out: Glycyrrhizic acid - Inhibition (%) of viral plaques

lactoferrin
activity against human immunodeficiency virus replication [1]: potent activity
activity against human cytomegalovirus replication (human cytomegalovirus): potent activity
antiviral / antiherpetic (HSV1) activity of lactoferrin (HSV1 [2]): antiherpetic (HSV1) activity

Nc1nc2c(ncn2COCCO)c(=O)[nH]1 [aciclovir]
efficacy during the first infection ([3]; administered during the first infection): fairly efficient
prevention of re-infection ([3]; re-infection by Herpes Simplex Virus type 1): not preventing re-infection
efficacy in recurring infections ([3]; recurring infections): not very effective
side effects of oral treatment ([4]; po): nausea, diarrhoea, itching, headaches, renal inadequacies and nephrotoxicity
side effects of topical use [4]: often causes burning and irritation of mucous membranes

CC1(C)[C@@H](O[C@H]2O[C@H](C(=O)O)[C@@H](O)[C@H](O)[C@H]2O[C@@H]2O[C@H](C(=O)O)[C@@H](O)[C@H](O)[C@H]2O)CC[C@]2(C)[C@H]3C(=O)C=C4[C@@H]5C[C@@](C)(C(=O)O)CC[C@]5(C)CC[C@@]4(C)[C@]3(C)CC[C@@H]12 [glycyrrhizic acid]
reduction in the incorporation of glucosamine-H^3, infected cells ([5]; 0.5 mM, infected cells): more than 10%
reduction in the synthesis of glyco-protein in infected cells ([5]; 1 mM, infected cells): 20%
synthesis of viral glycoproteins ([5]; at antiviral doses): largely inhibits
inhibition of incorporation of glucosamine-H^3, normal cells ([6]; 0.5 mM, normal cells): no inhibition
inhibition of the synthesis of glyco-proteins in the control ([6]; 1 mM, control (normal) cells): no inhibition
synthesis of glyco-proteins in the normal cells ([6]; 4 mM, normal cells): slightly altered
cell glycoproteins synthesis ([6]; only at very high doses): only at very high doses does it also inhibit
action on the synthesis of proteins, normal cells [7]: practically irrelevant
inhibition at 200 µg/mL (HSV1 [8]; [12]): 0%
inhibition at 400 µg/mL (HSV1 [8]; [12]): 10 ± 4%
inhibition at 600 µg/mL (HSV1 [8]; [12]): 27 ± 7%
inhibition at 800 µg/mL (HSV1 [8]; [12]): 50 ± 8%
inhibition at 1000 µg/mL (HSV1 [8]; [12]): 75 ± 12%
action on the synthesis of proteins, infected cells [9]: practically irrelevant
Viral production after 12 hours (HSV1 [10]; contact 2 hours at 37° C., 12 hours (control 3 × 10^6)): 4.2 × 10^4 PFU/ml
Viral production after 17 hours (HSV1 [10]; contact 2 hours at 37° C., 17 hours (control 5.4 × 10^6)): 1.2 × 10^4 PFU/ml
inhibition at 12 hours from the infection (HSV1 [10]; 12 hours): about 2 logarithms
inhibition at 22 hours from infection (HSV1 [10]; 22 hours): ~3 logarithms
inhibition at 22 hours from infection (%) (HSV1 [10]; 22 hours): 99.9%
decrease in infection (HSV1 [10]; at 12, 17 and 22 hours): strong decrease in infection
inhibition of viral replication ([11]; 0.5 mM): 50%
reduction of the virus ([11]; 1 mM): 80%
inhibition of production of the virus ([11]; 4 mM): 99%
antiviral activity [11]: a certain antiviral activity

chicken lysozyme: chicken lysozyme supplied by SIGMA
Inhibition (%) of viral plaques with various lysozymes (HSV1 [8]; 0.5 mg/ml): 20 ± 4%
Inhibition (%) of viral plaques with various lysozymes (HSV1 [8]; 1 mg/ml): 49 ± 5%
Inhibition (%) of viral plaques with various lysozymes (HSV1 [8]; 2 mg/ml): 60 ± 6%
Inhibition (%) of viral plaques with various lysozymes (HSV1 [8]; 4 mg/ml): 71 ± 6%
Inhibition (%) of viral plaques with various lysozymes (HSV1 [8]; 6 mg/ml): 82 ± 4%
dose dependence of the action (HSV1 [8]; in words): dose-dependent
formation of herpetic virus plaques on VERO cells (HSV1 [8]; in words): significantly inhibits
